Results as given in patent publication US5725838A, “Radiolabeled D4 receptor ligands” (Resolution Pharmaceuticals, Inc., priority 1996, dated 1998).

Columns and labels:
[1] = molecular target: T1, human D2 receptor (short isoform) (Homo sapiens, UniProt P14416); assay: D2 receptor binding, 3H-spiperone displacement; settings: membranes of GH4 C1 (rat pituitary) cells stably transfected with human D2 short isoform; 0.25 nM 3H-spiperone; Cheng-Prusoff
T1 construct: expressed in transfected cells; host or cells: GH4 C1 (rat pituitary) cells, stably transfected, membrane preparation
T1 sequence (P14416 1-414 isoform P14416-2): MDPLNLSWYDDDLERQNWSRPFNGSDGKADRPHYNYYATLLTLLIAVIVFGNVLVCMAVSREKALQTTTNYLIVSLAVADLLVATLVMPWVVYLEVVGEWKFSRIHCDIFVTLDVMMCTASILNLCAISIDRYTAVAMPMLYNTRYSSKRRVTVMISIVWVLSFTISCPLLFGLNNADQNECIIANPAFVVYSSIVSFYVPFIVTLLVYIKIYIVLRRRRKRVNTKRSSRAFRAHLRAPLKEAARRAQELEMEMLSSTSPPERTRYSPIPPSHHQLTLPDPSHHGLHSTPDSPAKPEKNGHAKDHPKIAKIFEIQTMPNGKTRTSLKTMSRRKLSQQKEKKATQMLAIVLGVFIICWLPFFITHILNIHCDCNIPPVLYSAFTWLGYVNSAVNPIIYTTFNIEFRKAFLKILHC
Experimental: D2 and D4 receptor-binding affinities of the compounds of Example 3 were evaluated as described in WO95/17400 (incorporated herein by reference) for their ability to reduce binding of ^3 H-spiperone as compared to the reference compound clozapine. The potency of the test compound to reduce ^3 H-spiperone binding directly correlated to its binding affinity for the receptor.
Briefly, the D4 receptor was utilized in the form of membrane preparations obtained from […] cells stably transfected with human D4 receptor (D4.2 sub-type). […] Ready Protein Plus liquid scintillant (5 ml, Beckman) was added and the vials counted by liquid scintillation spectrophotometry (Beckman LSC 6500) after equilibrating for three hours at room temperature to determine total binding (Br).
Non-specific binding for D4 was assayed by incubating membrane homogenate, ^3 H-spiperone and fresh dopamine. Filtrate was counted using the same procedure as in the total binding assay described above to give the non-specific binding value (NSB). Non-specific binding for D2 was similarly assessed, with the exception that (-)-sulpiride was used in place of dopamine.
To assess displacement, membrane homogenate was incubated with ^3 H-spiperone and test compound dissolved in DMSO. Filtrate was counted using the same procedure as in the total binding assay described above, to give the displacement binding value (BD). […]

[2] = molecular target: T2, human D4 receptor (D4.2 sub-type) (Homo sapiens, UniProt P21917, DEL265-296); assay: D4 receptor binding, 3H-spiperone displacement; settings: membranes of cells stably transfected with human D4.2; 0.25 nM 3H-spiperone; Cheng-Prusoff
T2 construct: expressed in transfected cells; host or cells: HEK 298 (so in the source); probably HEK 293), stably transfected, membrane preparation
T2 sequence (P21917 with tags, fused parts or gaps DEL265-296): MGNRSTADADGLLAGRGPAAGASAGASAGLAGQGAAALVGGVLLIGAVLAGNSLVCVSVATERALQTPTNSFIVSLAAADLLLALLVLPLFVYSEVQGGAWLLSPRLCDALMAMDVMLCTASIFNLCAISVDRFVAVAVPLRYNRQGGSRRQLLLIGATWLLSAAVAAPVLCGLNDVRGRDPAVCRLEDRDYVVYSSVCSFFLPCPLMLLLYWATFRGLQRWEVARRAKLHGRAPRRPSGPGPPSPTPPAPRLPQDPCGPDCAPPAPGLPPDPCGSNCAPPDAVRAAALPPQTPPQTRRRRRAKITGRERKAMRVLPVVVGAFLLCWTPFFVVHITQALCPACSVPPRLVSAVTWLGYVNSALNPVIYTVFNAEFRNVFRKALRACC
Experimental: The potency of the test compound to reduce ^3 H-spiperone binding directly correlated to its binding affinity for the receptor.
Individual filter disks were put in scintillation vials (Biovials, Bechman).
Ki was calculated by the Cheng and Prustoff transformation: […]
where [L] is the concentration of ^3 H-spiperone used in the assay and KD is the dissociation constant of ^3 H-spiperone determined independently under the same binding conditions.

Ki [1]: 2370 nM
Ki [2]: 0.16 nM
SMILES: Ic1ccc(N2CCN(Cc3c[nH]c4ncccc34)CC2)cc1 [3-[4-(4-iodophenyl)-piperazin-1-yl]methyl-1H-pyrrolo[2,3-b]pyridine]
